According to US8986729B2, “Palatable suspending vehicle for pharmaceutical ingredients” (Fagron, Inc., priority 2004, dated 2015):
Counter-ions that a name gives are not always drawn.

Assays:
[1] = Settling and resuspendability of drug suspensions after 7 days storage; format: physicochemical; conditions: for Settling: 7 days, dark, room temperature, scale 0-10, 10=none, 0=all at bottom; for Resuspendability: after 7 days, moderate shaking, scale 0-10, 10=perfectly homogenous
Method: (§1) Suspensions of baclofen, bethanechol chloride, labetalol hydrochloride, verapamil hydrochloride, or ibuprofen were prepared in VE1 or OO. […] The wetted powder was incorporated into 50 ml VE1 or OO by geometric dilution and stored in individual non-opaque containers. […] The concentrations of the pharmaceutical compounds in suspension represent ‘typical’ prescribed preparations.
The suspensions were stored in the dark at room temperature for 7 days and then settling of the drugs and resuspendability of sedimented drug in OO or VE1 was evaluated. Settling and resuspendability of the drugs was rated on a subjective scale of 0-10: settling (how much product apparent at bottom of container, 10=none, 0=all); resuspendability (how homogenous does the product appear after moderate shaking, 10=perfectly homogenous, 0=not homogenous (heterogeneous)). Resuspendability of sedimented ingredients was evaluated after evaluation of settling. The suspensions were shaken deliberately (stepwise), with frequent inspections of the bottom of the container.

[2] = Subjective rating of drug suspensions immediately after preparation (ease of preparation, homogeneity, viscosity); format: physicochemical; conditions: for phase separation of the suspending agent from the liquid phase: drug preparation in OO; for Homogeneity: scale 0-10, 0=drug settles completely and immediately, 10=consistently homogenous; for Viscosity: subjective scale 0-10, 0=water, 10=thick molasses
Method: as §1
The suspensions were evaluated immediately after preparation with respect to ease of preparation, homogeneity, and viscosity by the pharmaceutical technician preparing the suspensions. The suspensions were rated on a subjective scale of 0-10: ease of preparation, 0=difficult, 10=very easy; homogeneity, 0=drug settles completely and immediately, 10=consistently homogenous in appearance along the vertical axis; viscosity, 0=water, 10=thick molasses.

[3] = drug suspension in OO, hydrochloride
[4] = drug suspension in OO, listed as bethanechol chloride
[5] = drug suspension in OO, listed as verapamil hydrochloride, hydrochloride
[6] = drug suspension in OO, listed as ibuprofen

Compound | Settling ([1]; drug suspension in OO, listed as labetalol hydrochloride, hydrochloride) | Resuspendability ([1]; drug suspension in OO, listed as Labetalol hydrochloride, hydrochloride) | Settling ([1]; drug suspension in VE1) | Resuspendability ([1]; drug suspension in VE1) | Homogeneity ([2]; drug suspension in OO) | Viscosity ([2]; drug suspension in OO) | Homogeneity ([2]; drug suspension in VE1) | Viscosity ([2]; drug suspension in VE1) | Settling ([1]; drug suspension in OO) | Settling [1, 4] | Resuspendability ([1]; drug suspension in OO) | Resuspendability [1, 4] | Settling [1, 6] | Resuspendability [1, 6] | Settling [1, 3] | Resuspendability [1, 3] | phase separation of the suspending agent from the liquid phase [2] | Settling [1, 5] | Resuspendability [1, 5]
NCC(CC(=O)O)c1ccc(Cl)cc1 (stereo not drawn) [Baclofen, baclofen] | – | – | 8 | 9 | 9 | 6 | 9 | 7 | – | – | – | – | – | – | – | – | – | – | –
CC(C[N+](C)(C)C)OC(N)=O (stereo not drawn) [Bethanechol Chloride, bethanechol chloride] | – | – | 8 | 9 | 9 | 5 | 9 | 7 | 6 | minimal to moderate sedimentation | 9 | easily resuspended | – | – | – | – | – | – | –
COc1ccc(CCN(C)CCCC(C#N)(c2ccc(OC)c(OC)c2)C(C)C)cc1OC (stereo not drawn) [Verapamil Hydrochloride, verapamil hydrochloride] | – | – | 7 | 9 | 8 | 2 | 9 | 7 | – | – | – | – | – | – | 2 | 6 | phase separation | large portion | more difficult to resuspend

Now from value to molecule, other results behind:

Settling ([1]; drug suspension in OO, listed as labetalol hydrochloride, hydrochloride) | Resuspendability ([1]; drug suspension in OO, listed as Labetalol hydrochloride, hydrochloride) | Settling ([1]; drug suspension in VE1) | Resuspendability ([1]; drug suspension in VE1) | Homogeneity ([2]; drug suspension in OO) | Viscosity ([2]; drug suspension in OO) | Homogeneity ([2]; drug suspension in VE1) | Viscosity ([2]; drug suspension in VE1) | Settling ([1]; drug suspension in OO) | Settling [1, 4] | Resuspendability ([1]; drug suspension in OO) | Resuspendability [1, 4] | Settling [1, 6] | Resuspendability [1, 6] | Compound | Settling [1, 3] | Resuspendability [1, 3] | phase separation of the suspending agent from the liquid phase [2] | Settling [1, 5] | Resuspendability [1, 5]
large portion | more difficult to resuspend | 9 | 9 | 3 | 1 | 9 | 7 | – | – | – | – | – | – | CC(CCc1ccccc1)NCC(O)c1ccc(O)c(C(N)=O)c1 (stereo not drawn) [Labetalol Hydrochloride, labetalol hydrochloride] | 2 | 3 | phase separation | – | –
– | – | 8 | 9 | 9 | 4 | 9 | 7 | 7 | – | 9 | – | minimal to moderate sedimentation | easily resuspended | CC(C)Cc1ccc(C(C)C(=O)O)cc1 (stereo not drawn) [Ibuprofen, ibuprofen] | – | – | – | – | –
